Assay results from patent US20210317092A1 (BAYER PHARMA AKTIENGESELLSCHAFT, priority 2016, published 2021).

Experiments:
[1] = molecular target: T1, native human Bradykinin B1 receptor (Homo sapiens, UniProt P46663); experiment: Calcium flux Assay (FLIPR) with human fibroblasts expressing Bradykinin B1 receptor (hB1 IMR-90); format: cell-based; settings: IMR-90 human fibroblasts expressing native Bradykinin B1 receptor
T1 construct: which express native human Bradykinin B1 receptor after induction with human IL-10; Coriell Institute; host or cells: IMR-90 human foetal lung fibroblasts, cytokine-induced
T1 sequence (P46663 1-353): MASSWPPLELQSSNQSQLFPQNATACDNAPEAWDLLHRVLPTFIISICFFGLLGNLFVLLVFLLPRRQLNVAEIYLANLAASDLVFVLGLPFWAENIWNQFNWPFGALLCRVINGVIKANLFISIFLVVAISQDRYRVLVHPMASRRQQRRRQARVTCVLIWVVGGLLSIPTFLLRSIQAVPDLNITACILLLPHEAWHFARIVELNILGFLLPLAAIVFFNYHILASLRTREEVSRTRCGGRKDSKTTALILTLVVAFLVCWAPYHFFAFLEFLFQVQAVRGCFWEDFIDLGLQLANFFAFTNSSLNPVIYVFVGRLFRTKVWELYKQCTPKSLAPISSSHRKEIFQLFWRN
Procedure, shortened: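 IMR-90 human foetal lung fibroblasts induced with 0.35 ng/mL […] for 3 h, Fluo-4/AM-loaded, preincubated with compound (8 concentrations, triplicate) for 30 min at 28 °C, then challenged with Lys-(Des-Arg)-bradykinin at EC90. Ca2+ fluorescence was read at 538 nm; full inhibition set by 20 µM Lys-(Des-Arg-Leu)-bradykinin; IC50 derived.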

IL-8 secretion = experiment: Inhibitory activity on Bradykinin B1 agonist-induced secretion of IL-8 in human IMR-90 cells; format: cell-based; settings: 30 min compound, stimulated with 0.1 μM Lys-[Des-Arg9]Bradykinin and 0.1 μM Sar-[D-Phe8]-des-Arg9-Bradykinin for 5 hours
Excerpt: Inhibitory activity on Bradykinin B1 agonist-induced secretion of IL-6 and IL-8 in human IMR-90 cells
The effect of the compound examples on secretion of the cytokine IL-6 and IL-8 has been investigated in the human foetal lung fibroblast IMR-90 cell line. Here the induction of the cytokine secretion was induced by the Bradykinin B1 agonists Lys-[Des-Arg9]Bradykinin (CAS 71800-36-7, Tocris Bioscience) and Sar-[D-Phe8]-des-Arg9-Bradykinin (CAS 126959-88-4, Tocris Bioscience) leading to the activation of the Bradykinin B1-driven signalling pathway. This effect is indicative for a strong anti-inflammatory mode of action in kinin driven inflammation.
IMR-90 cells were cultured in Eagle's Minimum Essential Medium (EMEM) containing 2 mM L-glutamine, 1 g/L glucose, 1.5 g/L NaHCO3, 1 mM sodium pyruvate and non-essential amino acids (ATCC, 30-2003™) supplemented with 10% FBS (Biochrom, S0615) and 50 U/mL Penicillin, 50 μg/mL Streptomycin (PAA, P11-010). The assay was performed in EMEM and a cell density of […] IMR-90 cells/96-well. The compound examples have been serial diluted in 100% DMSO and evaluated at 8 different concentrations within the range of 3 nM and 10 μM and a final DMSO concentration of 0.4%. The IMR-90 cells have been incubated with the respective concentration of the compound for 30 min. The enhanced secretion of IL-6 and IL-8 was induced by the stimulation of these cells with 0.1 μM Lys-[Des-Arg9]Bradykinin (Tocris, catalogue no. 3225) and 0.1 μM Sar-[D-Phe8]-des-Arg9-Bradykinin (Tocris, catalogue no. 3230) for 5 hours at 37° C. and 5% C02. Further, cells have been treated with Lys-[Des-Arg9]Bradykinin and Sar-[D-Phe8]-des-Arg9-Bradykinin as neutral control and with 0.1% DMSO as inhibitor control. The amount of IL-6 and IL-8 in the supernatant was determined using the Human Prolnflammatory Panel II (4-Plex) (MSD, K15025B) according to manufacturer's instruction. Briefly, supernatants were added onto assay plates and incubated at room temperature for 1-2 h with vigorous shaking at 600 rpm. Detection antibodies were then added onto the supernatants and incubated at room temperature for an additional 1-2 h with vigorous shaking at 600 rpm. Plates were washed three times with phosphate-buffered saline (PBS; 137 mM NaCl, 2.7 mM KCl, 6.5 mM Na2HPO4, 1.7 mM KH2P04) containing 0.05% Tween-20 (Bio-Rad, 161-0781) and electrochemiluminescence detected using the MSD Sector Imager 6000 plate reader. The cell viability was measured using the CellTiter-Glo Luminescent Assay (Promega, G7571) following the manufacturers protocol. Briefly, the CellTiter-Glo Reagent was diluted with PBS (1:1) and added directly to cells. After incubation and shaking for 10 minutes luminescent signal was measured which is proportional to the amount of ATP present.
The effect of the compound on the amount of secreted cytokine has been calculated as 100/(measured cytokine concentration of neutral control-measured cytokine concentration of inhibitor control)*(measured cytokine concentration of compound dose-measured cytokine concentration of inhibitor control). IC50 values are determined using 4-parameter-fit.
The compound examples were tested in triplicates per plate and the inhibitory activity was determined as the relation between neutral and inhibitor control in percent. IC50 values were calculated using the 4-parameter logistic model.

SMILES | IC50 [1] [µM] | IC50 (IL-8 secretion) [µM]
COc1ccc(-c2ccc(NC(=O)C3(c4cccc(Cl)c4)CC3)cc2-c2nnn[nH]2)cc1OC [Example 1, 1-(3-Chlorophenyl)-N-[3′,4′-dimethoxy-2-(1H-tetrazol-5-yl)biphenyl-4-yl]cyclopropanecarboxamide] | 0.0142 | 0.06
CCOc1ccc(-c2ccc(NC(=O)C3(c4cccc(Cl)c4)CC3)cc2-c2nnn[nH]2)cn1 [Example 253, 1-(3-Chlorophenyl)-N-[4-(6-ethoxypyridin-3-yl)-3-(1H-tetrazol-5-yl)phenyl]cyclopropanecarboxamide] | 0.0149 | 0.075
